Experimental data reported in patent publication US20250368662A1, “INHIBITORS OF INDOLEAMINE 2,3-DIOXYGENASE 1 (IDO1) AND TRYPTOPHAN 2,3-DIOXYGENASE (TDO) AND METHODS OF USING SAME” (University of South Carolina, priority 2024, published 2025).

Test system: EO771 cells
Test: Mouse model of breast cancer (EO771 cells in mammary fat pads)
Assay type: in vivo
Conditions: female C57Bl/6 mice, i.p. 10 mg/kg every other day for 3 weeks
Source text: In a mouse model of breast cancer, 8-week-old female C57Bl/6 mice were inoculated with EO771 cells in the 4th pair of mammary fat pads. […] Mice were sacrificed 24 days after cell inoculation.

## O=C(NCCCCC1CN2C(c3ccc4ccccc4c3)=CSC2=N1)Nc1ccccc1 (centres unmarked) [USCYL01]
  body weight: did not affect
  weights of the heart, liver, lungs, kidney, brain, and lymph nodes: did not affect
